Experimental data published in patent publication US12371748B2, “Genetic markers for predicting responsiveness to therapy with HDL-raising or HDL mimicking agent” (Hoffmann-La Roche Inc., priority 2014, dated 2025).

How the values were obtained:
CETP = biological target: T1, CETP (Homo sapiens, UniProt P11597); conditions: humans; cited from earlier work
T1 construct: host or cells: humans (in vivo; endogenous plasma CETP)
T1 sequence (P11597 18-493): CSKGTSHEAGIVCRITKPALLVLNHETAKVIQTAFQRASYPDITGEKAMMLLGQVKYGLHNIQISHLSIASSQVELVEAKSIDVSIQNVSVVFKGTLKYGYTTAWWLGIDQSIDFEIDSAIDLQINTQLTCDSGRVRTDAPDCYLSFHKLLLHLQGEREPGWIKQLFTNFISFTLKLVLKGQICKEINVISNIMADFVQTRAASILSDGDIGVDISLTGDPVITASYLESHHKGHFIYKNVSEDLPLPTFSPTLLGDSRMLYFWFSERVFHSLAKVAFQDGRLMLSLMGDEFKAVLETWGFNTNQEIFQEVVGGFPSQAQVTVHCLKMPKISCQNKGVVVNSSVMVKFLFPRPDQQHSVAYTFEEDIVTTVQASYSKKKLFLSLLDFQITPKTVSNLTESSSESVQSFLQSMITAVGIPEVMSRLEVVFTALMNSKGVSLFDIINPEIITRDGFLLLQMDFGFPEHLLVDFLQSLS

[1] = dal-OUTCOMES: change in plasma lipids by rs1967309 genotype; format: in vivo, human; conditions: for change in total cholesterol at 1 month: dalcetrapib arm
Protocol: All patients were following individualized programs to target LDL cholesterol levels of 100 mg per deciliter (2.6 mmol per liter) or lower by statin if tolerated and diet. No specific statin agent was specified, and patients were not excluded based on LDL cholesterol values. Patients with serum triglyceride levels of 400 mg per deciliter (4.5 mmol per liter) or higher were excluded. (Schwartz G G et al. N Engl J Med 2012; 367:2089-99) Eligible participants to the dal-Outcomes trial entered a single-blind placebo run-in period of approximately 4 to 6 weeks to allow for patients to stabilise and for completion of planned revascularisation procedures. At the end of the run-in period, eligible patients in stable condition were randomised in a 1:1 ratio to 600 mg of dalcetrapib or placebo on top of evidence-based medical care for acute coronary syndrome. Cardiovascular events were adjudicated by an independent clinical endpoint committee. For the pharmacogenomics study, 6338 patients were recruited from April 2008 through July 2010 at 461 sites in 14 countries and provided written informed consent to participate to the genetic study of the dal-OUTCOMES trial. DNA was extracted from whole blood. Following genomic data cleanup, samples from 5749 Caucasian patients were used for the discovery genome-wide association study (GWAS).
This effect was not observed in the placebo arm. […] During the dalcetrapib treatment period, GG carriers had overall slightly lower LDL-cholesterol levels (adjusted P=0.048; repeated measures analysis, FIG. 4).

CCC(CC)CC1(C(=O)Nc2ccccc2SC(=O)C(C)C)CCCCC1 [dalcetrapib, thioisobutyric acid S-(2-{[1-(2-ethyl-butyl)-cyclohexanecarbonyl]-amino}-phenyl) ester]
CETP activity (CETP): inhibitor of CETP activity
change in total cholesterol at 1 month ([1]; rs1967309 AA): 13.8 ± 24.0 mg/dL
change in total cholesterol at 1 month ([1]; rs1967309 AG): 12.9 ± 30.3 mg/dL
change in total cholesterol at 1 month ([1]; rs1967309 GG): 10.0 ± 23.3 mg/dL
change in LDL-cholesterol after 1 month of dalcetrapib treatment ([1]; rs1967309 AA): +0.6±21.0 mg/dl
change in LDL-cholesterol after 1 month of dalcetrapib treatment ([1]; rs1967309 AG): -1.0 ± 20.0 mg/dL
change in LDL-cholesterol after 1 month of dalcetrapib treatment ([1]; rs1967309 GG): -2.0 ± 20.0 mg/dL
